The values that follow come from US5153203A, “Quinolone derivatives and salts thereof, preparation processes thereof, and antibacterial agents containing the same” (Wakunaga Seiyaku Kabushiki Kaisha, priority 1989, dated 1992).

In brackets after ≈: the same amount, converted by molar mass.

The subject of data set [1] is S. aureus 209 P (IFO 12732). Put plainly: Minimum inhibitory concentration (MIC), standard method of the Japan Society of Chemotherapy. The data set is classed as cell-based. The settings on record: Staphylococcus aureus, IFO12732. The procedure: (§1) With respect to certain representative compounds among the compounds [I] of the present invention, their minimum inhibitory concentrations (MIC; μg/ml) were measured in accordance with the standard method established by the Japan Society of Chemotherapy [CHEMOTHERAPY, 29(1), 76-79 (1981]. The results are summarized in Table 1, in which the compound numbers are as shown in examples.

In data set [2] the test system is E. coli NIH JC-2 (IFO 12734). The description is as above. The class given is cell-based. The note with it: Escherichia coli, IFO12734. The procedure:
as §1

For the next data set, the system named is P. aeruginosa (IFO 3445). The description is as above. The data set is classed as cell-based. The settings on record: Pseudomonas aeruginosa, IFO3445. The procedure: as §1
Data set [3] in a line: Partition coefficient, phosphate buffer/n-octanol. The settings on record: 50 mM phosphate buffer (pH 7.4, μ=0.15)/n-octanol. The class given is physicochemical. Here is the method: Following the method proposed by Akira Tsuji et al. in Antimicrob. Agents Chemother., 32. 190-194 (1988), 50 mM phosphate buffer (pH 7.4, μ=0.15)/n-octanol partition coefficients were measured.

`Cl.O=C(O)c1cn(C2CC2)c2cc(OC3CCNC3)c(F)cc2c1=O` (centres unmarked) [Compound 1, 7-(3-Pyrrolidinyloxy)-1-cyclopropyl-6-fluoro-1,4-dihydro-4-oxoquinoline-3-carboxylic acid hydrochloride]: the figures for the MIC (in data set [1]; in data set [2]; against P. aeruginosa (IFO 3445)) were 3.13 µg/mL, 0.39 µg/mL and 3.13 µg/mL, respectively.
On to `Cl.O=C(O)c1cn(C2CC2)c2c(F)c(OC3CCNC3)c(F)cc2c1=O` (centres unmarked) [Compound 2, 7-(3-Pyrrolidinyloxy)-1-cyclopropyl-6,8-difluoro-1,4-dihydro-4-oxoquinoline-3-carboxylic acid hydrochloride], for which the MIC in data set [1] amounted to 0.78 µg/mL; in data set [2] it was 0.2 µg/mL; in the data set with P. aeruginosa (IFO 3445), 0.78 µg/mL.
On to `Cl.Nc1c(F)c(OC2CCNC2)c(F)c2c1c(=O)c(C(=O)O)cn2C1CC1` (centres unmarked) [Compound 8, 7-(3-Pyrrolidinyloxy)-1-cyclopropyl-5-amino-6,8-difluoro-1,4-dihydro-4-oxoquinoline-3-carboxylic acid hydrochloride], for which the figures for the MIC (in data set [1]; in data set [2]; in the data set on P. aeruginosa (IFO 3445)) were 0.39 µg/mL, 0.1 µg/mL and 0.78 µg/mL, respectively.
With `CC1COc2c(OC3CCNC3)c(F)cc3c(=O)c(C(=O)O)cn1c23.Cl` (centres unmarked) [Compound 9, 10-(3-Pyrrolidinyloxy)-9-fluoro-2,3-dihydro-3-methyl-7-oxo-7H-pyrido[1,2,3-de][1,4]-benzoxazine-6-carboxylic acid hydrochloride], the MIC in data set [1] is 1.56 µg/mL; in data set [2], 1.25 µg/mL; in the data set on P. aeruginosa (IFO 3445), 25 µg/mL.
With `Cl.O=C(O)c1cn(-c2ccc(F)cc2F)c2nc(OC3CCNC3)c(F)cc2c1=O` (centres unmarked) [Compound 10, 7-(3-Pyrrolidinyloxy)-1-(2,4-difluorophenyl)-6-fluoro-1,4-dihydro-4-oxo-1,8-naphthyridine-3-carboxylic acid hydrochloride], the MIC in data set [1] was 1.56 µg/mL; in data set [2], 0.78 µg/mL; against P. aeruginosa (IFO 3445) it was 3.13 µg/mL.
On to `CCn1cc(C(=O)O)c(=O)c2cc(F)c(OC3CCN(C)CC3)cc21` [Compound 11, 7-(1-Methyl-4-piperidyloxy)-1-ethyl-6-fluoro-1,4-dihydro-4-oxoquinoline-3-carboxylic acid], for which the minimal inhibitory concentration (MIC) is 1.56 µg/mL (≈ 4.48 µM) in data set [1], 0.78 µg/mL (≈ 2.24 µM) in data set [2] and 12.5 µg/mL (≈ 35.9 µM) against P. aeruginosa (IFO 3445).
As to `CC1COc2c(OC3CCN(C)CC3)c(F)cc3c(=O)c(C(=O)O)cn1c23` (centres unmarked) [Compound 12, 10-(1-Methyl-4-piperidyloxy)-9-fluoro-2,3-dihydro-3-methyl-7-oxo-7H-pyrido[1,2,3-de][1,4]-benzoxazine-6-carboxylic acid], the minimal inhibitory concentration (MIC) in data set [1] is 1.56 µg/mL (≈ 4.14 µM); in data set [2], 1.56 µg/mL (≈ 4.14 µM); against P. aeruginosa (IFO 3445), 12.5 µg/mL (≈ 33.2 µM).
On to `Nc1c(F)c(OC2CCNCC2)c(F)c2c1c(=O)c(C(=O)O)cn2C1CC1` [Compound 19], for which the logD in data set [3] is -0.693.
For the compound `O=C(O)c1cn(C2CC2)c2cc(N3CCOC3)c(F)cc2c1=O` [Compound 57, 1-Cyclopropyl-6-fluoro-7-(3-oxazolidinyl)-1,4-dihydro-4-oxoquinoline-3-carboxylic acid], the MIC came to 0.1 µg/mL (≈ 0.314 µM) in data set [1], 0.2 µg/mL (≈ 0.628 µM) in data set [2] and 0.78 µg/mL (≈ 2.45 µM) with P. aeruginosa (IFO 3445).
As for `CCn1cc(C(=O)O)c(=O)c2cc(F)c(N3CCOC3)cc21` [Compound 58], the minimal inhibitory concentration (MIC) turned out to be 0.39 µg/mL (≈ 1.27 µM) in data set [1], 0.78 µg/mL (≈ 2.55 µM) in data set [2] and 6.25 µg/mL (≈ 20.4 µM) in the data set with P. aeruginosa (IFO 3445).
In the same order, the values of `CC1CN(c2cc3c(cc2F)c(=O)c(C(=O)O)cn3C2CC2)CO1` (centres unmarked) [Compound 59] are 0.1 µg/mL (≈ 0.301 µM), 0.2 µg/mL (≈ 0.602 µM) and 0.78 µg/mL (≈ 2.35 µM).
Turning to `CN(C)CC1CN(c2cc3c(cc2F)c(=O)c(C(=O)O)cn3C2CC2)CO1` (centres unmarked) [Compound 60], the MIC in data set [1] worked out at 0.2 µg/mL (≈ 0.533 µM); in data set [2] it was 0.2 µg/mL (≈ 0.533 µM); with P. aeruginosa (IFO 3445), 1.56 µg/mL (≈ 4.16 µM).
In data set [3], `CCOC(=O)c1cn(C2CC2)c2c(F)c(N3COC(CN(C)C)C3)c(F)cc2c1=O` (centres unmarked) [Compound 64] had a logD of -0.316.
`O=C(O)c1cn(C2CC2)c2c(F)c(N3CCOC3)c(F)cc2c1=O` [Compound 66, 1-Cyclopropyl-6,8-difluoro-7-(3-oxazolidinyl)-1,4-dihydro-4-oxoquinoline-3-carboxylic acid]: the values for the MIC (in data set [1]; in data set [2]; in the data set with P. aeruginosa (IFO 3445)) were 0.2 µg/mL (≈ 0.595 µM), 0.2 µg/mL (≈ 0.595 µM) and 1.56 µg/mL (≈ 4.64 µM), respectively.
With `CC1CN(c2c(F)cc3c(=O)c(C(=O)O)cn(C4CC4)c3c2F)CO1` (centres unmarked) [Compound 67], the values for the MIC (in data set [1]; in data set [2]; with P. aeruginosa (IFO 3445)) were 0.1 µg/mL (≈ 0.285 µM), 0.2 µg/mL (≈ 0.571 µM) and 0.78 µg/mL (≈ 2.23 µM), respectively.
`CC1COCN1c1c(F)cc2c(=O)c(C(=O)O)cn(C3CC3)c2c1F` (centres unmarked) [Compound 68]: the MIC was 0.2 µg/mL (≈ 0.571 µM) in data set [1], 0.78 µg/mL (≈ 2.23 µM) in data set [2] and 3.13 µg/mL (≈ 8.93 µM) in the data set on P. aeruginosa (IFO 3445).
For `CN(C)CC1CN(c2c(F)cc3c(=O)c(C(=O)O)cn(C4CC4)c3c2F)CO1` (centres unmarked) [Compound 69], the MIC in data set [1] came out at 0.2 µg/mL (≈ 0.508 µM); in data set [2], 0.2 µg/mL (≈ 0.508 µM); in the data set on P. aeruginosa (IFO 3445) it was 1.56 µg/mL (≈ 3.97 µM).
Consider `O=C(O)c1cn(C2CC2)c2c(F)c(N3CCOC3)c(F)c(F)c2c1=O` [Compound 72, 1-Cyclopropyl-5,6,8-trifluoro-7-(3-oxazolidinyl)-1,4-dihydro-4-oxoquinoline-3-carboxylic acid], for which the MIC is 0.2 µg/mL (≈ 0.565 µM) in data set [1], 0.39 µg/mL (≈ 1.1 µM) in data set [2] and 3.13 µg/mL (≈ 8.83 µM) against P. aeruginosa (IFO 3445).
`O=C(O)c1cn(C2CC2)c2c(F)c(N3COC(CO)C3)c(F)cc2c1=O` (centres unmarked) [Compound 74, 1-Cyclopropyl-6,8-difluoro-7-(5-hydroxymethyl-3-oxazolidinyl)-1,4-dihydro-4-oxoquinoline-3-carboxylic acid]: the MIC in data set [1] came out at 0.1 µg/mL (≈ 0.273 µM); in data set [2], 0.1 µg/mL (≈ 0.273 µM); against P. aeruginosa (IFO 3445), 0.78 µg/mL (≈ 2.13 µM).
As for `O=C(O)c1cn(C2CC2)c2c(F)c(N3CCCOC3)c(F)cc2c1=O` [Compound 76, Cyclopropyl-6,8-difluoro-7-(tetrahydro-1,3-oxazin)-3-yl-1,4-dihydro-4-oxoquinoline-3-carboxylic acid], the MIC in data set [1] amounted to 0.39 µg/mL (≈ 1.11 µM); in data set [2], 0.39 µg/mL (≈ 1.11 µM); in the data set with P. aeruginosa (IFO 3445) it was 3.13 µg/mL (≈ 8.93 µM).

The MIC is the lowest concentration that inhibits growth of the organism. High values mean a less susceptible organism, low ones a more susceptible organism. One may read the logD as lipophilicity at a set pH, counting ionised and neutral species.
